Values joined by “and” are separate entries in the source; they are usually repeats but may differ in a detail not shown here. Equal entries are not always repeated.
Columns and labels:
[1] = system: SL1344 infection of MC3T3-E1 osteoblast precursor cells; test: Salmonella infection of osteoblast precursor cells, T3SS-PNA treatment; assay type: cell-based, Salmonella enterica serovar typhimurium; conditions: 10 μM, multiplicity of infection of 30, 18 hours
Protocol: FIG. 11. […] Osteoblast precursor cells were grown for 24 hours on tissue culture treated 96-well plates prior to infection with SL1344 at a multiplicity of infection of 30. (A) The antisense inhibitor α-rpsD was added at 10 μM either without infection (No Treatment), after infection (Naked), or during infection (T3SS Transport). (B) After treatment for 18 hours the infection was imaged in brightfield and GFP channel. GFP expression corresponds to an intracellular infection with red arrows indicating hard to see GFP expression.
Osteoblast Precursor Cell Culture: MC3T3-E1 osteoblast precursor cells were stored in liquid nitrogen in growth media supplemented with %10 dimethyl sulfoxide (DMSO, Sigma). Osteoblasts were recovered from freezer stocks and cultured in growth media consisting of α-Minimum Essential Media (α-MEM, Gibco) supplemented with 10% Fetal Bovine Serum (FBS, Advanced, Atlanta Biologics), and 50 units/mL Penicillin-Streptomycin (P/S, Fisher Scientific) at 37° C., 5% CO2, and controlled humidity. For biological replicates a freezer stock, at passage 9, was split three ways and each replicate continuously passaged as individual biological replicates at 80% confluency using 0.25% trypsin (HyClone). […]

MDR STm = test: PNA growth assay (optical density) on clinical isolate; assay type: cell-based, Salmonella enterica serovar typhimurium; conditions: for growth inhibition: MDR STm, 10 μM PNA, optical density vs no treatment at 16 hours; for monotherapy effect (in words): clinical isolate of Salmonella
Protocol: (§1) Bacterial Cell culture: The clinical isolates were obtained from the lab of Nancy Madinger at the University of Colorado Anschutz campus. Clinical isolates were grown in Cation Adjusted Mueller Hinton broth (CAMHB) (Becton, Dickinson and Company 212322) at 37° C. with 225 rpm shaking or on solid CAMHB with 1.5% agar at 37° C. Clinical isolates were maintained as freezer stocks in 90% CAMHB, 10% glycerol at −80° C. Freezer stocks were streaked out onto solid CAMHB and incubated for 16 h to produce single colonies prior to experiments. For each biological replicate, a single colony was picked from solid media and grown for 16 h in liquid CAMHB prior to experiments. Non-clinical isolates, such as E. coli MG1655 (ATCC700926) and Salmonella entorica serovar typhimurium SL1344, were cultured in liquid 2% lysogeny broth (LB) or on 2% LB with 1.5% agar for solid plates. S. typhimurium cultures were supplemented with 30 μg/mL streptomycin and SL1344 strains containing plasmids pFPV (SL1344-mCherry) or pRG1 modified with a lacIq promoter (SL1344-Holin) were supplemented with 100 μg/mL ampicillin. Freezer stocks were stored in 60% LB broth, 40% glycerol at −80° C. Freezer stocks were streaked out onto solid LB and incubated for 16 h to produce single colonies before experiments. For biological replicates, single colonies were started in liquid LB and grown for 16 hours prior to experiments. E. coli MG1655 PNA growth experiments were carried out in M9 media (1×M9 minimal media salts solution (MP Biomedicals), 2.0 mM MgSO4, and 0.1 mM CaCl2 in sterile water) with 0.4% glucose.
(§2) PNA growth assay: Biological replicates were diluted 1:10,000 into treatment condition in 384-well plates and measured for 24 h in a Tecan GENios at 562 nm with a bandwidth of 35 nm. Media absorbance blanks were subtracted from data prior to analysis. Normalized optical density (OD) data is shown normalized to the time point where the “no treatment” growth curves reached saturation phase which varied across biological replicates.

NDM-1 KPN [2] = test: as above; assay type: cell-based, Klebsiella pneumoniae
Protocol: as §1, §2

SL1344 = test: Effect of 45-minute incubation with PNA on SL1344 viability; assay type: cell-based, Salmonella enterica serovar typhimurium; conditions: 10 μM, 45 minutes
Protocol: FIG. 13. Effect of 45-minute incubation with PNA treatment during infection. (A) Individual colonies of SL1344 were picked off of solid media and grown for 16 hours in luria broth supplemented with 30 μg/mL streptomycin, diluted 1:10, and regrown for 4 hours. After regrowth bacteria was diluted to a concentration equivalent to a […] multiplicity of infection of 200,000 cells/mL in 100 μL (conditions of HeLa cell infection after 24 hours growth). Cultures were suspended in phosphate buffered saline and treated with 10 μM of either α-lexA, α-rpsD, or plain phosphate buffered saline for 45 minutes before serial dilution, plated on solid media (40 μg/mL streptomycin), and incubated for 16 hours. Colony forming units were counted to enumerate percent infection with respect to no treatment. There is no significant difference (p>0.05) between α-lexA and α-rpsD at 45 minutes of treatment. […] Percent infection was then calculated in comparison to each replicates' no treatment. […]
Effect of PNA after 45 min of incubation during HeLa infection: SL1344 were cultured as described above and split 1:10 and regrown for 4 hours. […] Samples (10 μL) were taken at t=0 (before PNA addition) and t=45 min (after PNA treatment), and serially diluted, plated, and grown for 16 hours at 37° C. and CFU counted.

NDM-1 KPN [3] = test: Potentiation of antibiotics with PNAs (Bliss Independence); assay type: cell-based, Klebsiella pneumoniae; conditions: 10 μM PNA + 8 μg/mL meropenem, compared to meropenem monotherapy
Protocol: Combinatorial effects were evaluated using the Bliss Independence model where the S parameter defines a deviation from no interaction as is defined as: […]
Where ODAB is the OD at saturation time in only antibiotic, OD0 is the OD at saturation in no treatment, ODPNA is the OD at saturation in only antisense-PNA at 10 μM, and ODAB, PNA is the OD at saturation in a combination of antibiotic and antisense-PNA. Saturation time was determined as the time when the no treatment control reached its saturation growth phase. S>0 is a deviation towards synergy and S<0 is a deviation towards antagonism.

Row | Substance | Salmonella infection of osteoblast cells (in words) [1] | growth inhibition (MDR STm) | monotherapy effect (in words) (MDR STm) | monotherapy effect (in words) (NDM-1 KPN [2]; 10 μM) | growth inhibition (NDM-1 KPN [2]; 10 μM PNA, optical density vs no treatment at 16 hours) [%] | bacterial viability after co-incubation (in words) (SL1344) | growth with combination therapy (in words) (NDM-1 KPN [3])
1 | α-rpsD: 12-mer antisense PNA AGAAAATGGCAA (SEQ ID NO. 19) targeting rpsD, conjugated to (KFF)3K cell penetrating peptide via AEEA-linker (all peptide nucleic acid (PNA); (KFF)3K cell-penetrating peptide attached via AEEA linker) | eliminates Salmonella infection | 99±0.1% and 99% | effective against the clinical isolate of Salmonella | partial monotherapy effect | 65±7.1 | not long enough for the PNA to decrease bacterial viability | significantly reduced the growth
2 | α-lexA: 12-mer antisense PNA cGGAATGAAAGC (SEQ ID NO. 17) targeting lexA, conjugated to (KFF)3K cell penetrating peptide via AEEA-linker (antisense CGGAATGAAAGC; all peptide nucleic acid (PNA); (KFF)3K cell-penetrating peptide attached via AEEA linker) |  | 62±5.4% | effective against the clinical isolate of Salmonella |  |  | not long enough for the PNA to decrease bacterial viability | 

Source: patent publication US20210087565A1, “ANTISENSE ANTIBIOTICS AND BACTERIAL SECRETION BASED DELIVERY SYSTEM TO ELIMINATE DRUG-RESISTANT BACTERIA” (priority 2018, published 2021)
